Structures are written as SMILES. Where a name gives a salt, the structure may show the parent alone.

human protease activated receptor 1 (PAR-1), sequence (P25116 22-425): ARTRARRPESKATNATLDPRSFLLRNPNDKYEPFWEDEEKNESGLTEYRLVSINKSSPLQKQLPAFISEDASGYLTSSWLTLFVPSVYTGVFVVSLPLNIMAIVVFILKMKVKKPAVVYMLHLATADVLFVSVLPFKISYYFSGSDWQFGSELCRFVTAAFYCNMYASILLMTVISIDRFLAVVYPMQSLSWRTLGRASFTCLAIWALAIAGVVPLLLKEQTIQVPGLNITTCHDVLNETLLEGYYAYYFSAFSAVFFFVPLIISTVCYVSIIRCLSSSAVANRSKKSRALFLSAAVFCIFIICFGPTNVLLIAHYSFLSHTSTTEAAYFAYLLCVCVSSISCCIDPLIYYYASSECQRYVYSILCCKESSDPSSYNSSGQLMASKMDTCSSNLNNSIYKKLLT

This test concerns the target human protease activated receptor 1 (PAR-1) (Homo sapiens (Human), UniProt P25116). The test can be described thus: Cellular, functional in vitro test (aequorin luminescence, calcium release in recombinant HEK293 PAR-1 test cell). The test is classed as cell-based. Particulars: HEK293-derived PAR-1 test cell line expressing aequorin; PAR-1 agonist added at its EC50, 5 min after test substance. An excerpt:
1.a) Cellular, Functional In Vitro Test
A recombinant cell line is used to identify […] of the human protease activated receptor 1 (PAR-1) and to quantify the activity of the substances described herein. The cell is originally derived from a human embryonal kidney cell (HEK293; ATCC: American Type Culture Collection, Manassas, Va. 20108, USA). The test cell line constitutively expresses a modified form of the calcium-sensitive photoprotein aequorin which, after reconstitution with the cofactor coelenterazine, emits light when the free calcium concentration in the inner mitochondrial compartment is increased (Rizzuto R, Simpson A W, Brini M, Pozzan T.; Nature 1992, 358, 325-327). Additionally, the cell stably expresses the endogenous human PAR-1 receptor and the endogenous purinergic receptor P2Y2. The resulting PAR-1 test cell responds to stimulation of the endogenous PAR-1 or P2Y2 receptor with an intracellular release of calcium ions, which can be quantified through resulting aequorin luminescence with a suitable luminometer (Milligan G, Marshall F, Rees S, Trends in Pharmacological Sciences 1996, 17, 235-237).
For the testing of the substance specificity, the effect thereof after activation of the endogenous PAR-1 receptor is compared with the effect after activation of the endogenous purinergic P2Y2 receptor which utilizes the same intracellular signal path.
Two days (48 hours) before the assay, the cells are plated out in culture medium (DMEM F12, supplemented with 10% FCS, 2 mM glutamine, 10 mM HEPES, 1.4 mM pyruvate, 0.1 mg/ml gentamycin, 0.15% Na bicarbonate; BioWhittaker Cat. #BE04-687Q; B-4800 Verviers, Belgium) in 384-well microtitre plates and kept in a cell incubator (96% humidity, 5% v/v CO2, 37° C.). On the day of the test, the culture medium is replaced by a tyrode solution (in mM: 140 sodium chloride, 5 potassium chloride, 1 magnesium chloride, 2 calcium chloride, 20 glucose, 20 HEPES), which additionally contains the cofactor coelenterazine (25 μM) and glutathione (4 mM), and the microtitre plate is then incubated for a further 3-4 hours. The test substances are then pipetted onto the microtitre plate, and 5 minutes after the transfer of the test substances into the wells of the microtitre plate the plate is transferred into the luminometer, a PAR-1 agonist concentration which corresponds to the EC50 is added and the resulting light signal is immediately measured in the luminometer. To distinguish an antagonist substance action from a toxic action, the endogenous purinergic receptor is immediately subsequently activated with agonist (ATP, final concentration 10 μM) and the resulting light signal is measured.
In general, IC50 refers to the concentration that inhibits the measured activity by half. For the molecule `CCc1ccc(C2CC(C(=O)Nc3ccccc3)CN(C(=O)C(C)(C)CF)C2)cc1` (racemic) [Example 7, 5-(4-Ethylphenyl)-1-(3-fluoro-2,2-dimethylpropanoyl)-N-phenylpiperidine-3-carboxamide], the IC50 was 29 nM.

Turning to `CCc1ccc(C2CC(C(=O)Nc3ccccc3)CN(C(=O)CCOC)C2)cc1` (racemic) [Example 8, 5-(4-Ethylphenyl)-1-(3-methoxypropanoyl)-N-phenylpiperidine-3-carboxamide], the IC50 amounted to 109 nM.

As to `CCc1ccc(C2CC(C(=O)Nc3ccccc3)CN(C(=O)C3(CC)COC3)C2)cc1` (racemic) [Example 18], the half-maximal inhibitory concentration (IC50) came to 483 nM.

Turning to `CCc1ccc(C2CC(C(=O)Nc3ccccc3)CN(C(=O)c3scnc3C)C2)cc1` (racemic) [Example 36], the IC50 is 98.2 nM. Consider `CCc1ccc(C2CC(NC(=O)c3ccc(-c4cccc(C(F)(F)F)c4)cn3)CN(C(=O)C3CCCC3)C2)cc1` (racemic) [Example 83, N-[1-(Cyclopentylcarbonyl)-5-(4-ethylphenyl)piperidin-3-yl]-5-[3-(trifluoromethyl)phenyl]pyridine-2-carboxamide], for which the 50% inhibitory concentration (IC50) is 19.7 nM. Turning to `CCc1ccc(C2CC(NC(=O)C(C)(C)C)CN(C(=O)C3CCCC3)C2)cc1` (racemic) [Example 90, N-[1-(Cyclopentylcarbonyl)-5-(4-ethylphenyl)piperidin-3-yl]-2,2-dimethylpropanamide], the IC50 amounted to 359 nM. The figure for `CCc1ccc(C2CC(NC(=O)Nc3ccccc3)CN(C(=O)N3CCCC3)C2)cc1` (racemic) [Example 91, N-[5-(4-Ethylphenyl)-1-(pyrrolidin-1-ylcarbonyl)piperidin-3-yl]-3-phenylurea] is 17.4 nM; for `CCc1ccc(C2CC(NC(=O)N(C)c3ccccc3)CN(C(=O)C3CCCC3)C2)cc1` (racemic) [Example 95, 3-[1-(Cyclopentylcarbonyl)-5-(4-ethylphenyl)piperidin-3-yl]-1-methyl-1-phenylurea] it is 237 nM; for `CCc1ccc(C2CC(NC(=O)OC)CN(C(=O)N3CCOCC3)C2)cc1` (racemic) [Example 102, Methyl [5-(4-ethylphenyl)-1-(morpholin-4-ylcarbonyl)piperidin-3-yl]carbamate] it is 165 nM. `CCc1ccc(C2CC(NS(=O)(=O)Cc3ccccc3)CN(C(=O)C3CCCC3)C2)cc1` (racemic) [Example 104, N-[1-(Cyclopentylcarbonyl)-5-(4-ethylphenyl)piperidin-3-yl]-1-phenylmethanesulphonamide]: the IC50 was 248 nM. For `Cc1ccc(C2CC(NC(=O)c3ccccc3)CN(C(=O)C3(N)CCC3)C2)cc1C` (racemic) [Example 119, N-{1-[(1-Aminocyclobutyl)carbonyl]-5-(3,4-dimethylphenyl)piperidin-3-yl}benzenecarboxamide hydrochloride] the value was 15.7 nM; for `O=C(NC1CC(c2ccc(C(F)(F)F)cc2)CN(C(=O)N2CCC(O)CC2)C1)c1ccccc1` (racemic) [Example 129, N-{1-[(4-Hydroxypiperidin-1-yl)carbonyl]-5-[4-(trifluoromethyl)phenyl]piperidin-3-yl}benzenecarboxamide], 33.6 nM. For `C[C@@H]1CC[C@@H](C)N1C(=O)N1CC(NC(=O)c2ccccc2)CC(c2ccc(C(F)(F)F)cc2)C1` (mixture of isomers) [Example 133, N-(1-{[(2R,5R)-2,5-Dimethylpyrrolidin-1-yl]carbonyl}-5-[4-(trifluoromethyl)phenyl]piperidin-3-yl)benzenecarboxamide] the value was 14.6 nM; for `O=C(NC1CC(c2ccc(C(F)(F)F)cc2)CN(C(=O)N2CCS(=O)(=O)CC2)C1)c1ccccc1` (racemic) [Example 134, N-{1-[(1,1-Dioxidothiomorpholin-4-yl)carbonyl]-5-[4-(trifluoromethyl)phenyl]piperidin-3-yl}-benzenecarboxamide], 15.4 nM; for `O=C1CN(C(=O)N2CC(NC(=O)c3ccccc3)CC(c3ccc(C(F)(F)F)cc3)C2)CCN1` (racemic) [Example 141, N-{1-[(3-Oxopiperazin-1-yl)carbonyl]-5-[4-(trifluoromethyl)phenyl]piperidin-3-yl}benzenecarboxamide], 53.7 nM. As for `Cc1cccc(C(=O)NC2CC(c3ccc(C(F)(F)F)cc3)CN(C(=O)N3CCOCC3)C2)n1` (racemic) [Example 162], the IC50 came to 25 nM. Regarding `O=C(NC1CC(c2ccc(C(F)(F)F)cc2)CN(C(=O)N2CCC(O)CC2)C1)C1CCCC1` (racemic) [Example 170, N-{1-[(4-Hydroxypiperidin-1-yl)carbonyl]-5-[4-(trifluoromethyl)phenyl]piperidin-3-yl}cyclopentanecarboxamide], the half-maximal inhibitory concentration (IC50) turned out to be 21.3 nM.

As for `O=C(NC1CC(c2ccc(OC(F)(F)F)cc2)CN(C(=O)c2ccncc2)C1)c1ccccc1` (single isomer, unassigned) [Example 115, N-{1-(Pyridin-4-ylcarbonyl)-5-[4-(trifluoromethoxy)phenyl]piperidin-3-yl}benzenecarboxamide], the IC50 was 11.1 nM. `O=C(NC1CC(c2ccc(C(F)(F)F)cc2)CN(C(=O)N2CCOCC2)C1)c1ccccc1` (single isomer, unassigned) [Example 128, N-{1-(Morpholin-4-ylcarbonyl)-5-[4-(trifluoromethyl)phenyl]piperidin-3-yl}benzenecarboxamide]: the IC50 stood at 17 nM. The figure for `O=C(NC1CC(c2ccc(C(F)(F)F)cc2)CN(C(=O)N2CCC(O)CC2)C1)C1CCCC1` (single isomer, unassigned) [Example 177, N-{1-[(4-Hydroxypiperidin-1-yl)carbonyl]-5-[4-(trifluoromethyl)phenyl]piperidin-3-yl}cyclopentanecarboxamide] is 81 nM; for `N#CC1CCN(C(=O)N2CC(NC(=O)C3CCCC3)CC(c3ccc(C(F)(F)F)cc3)C2)CC1` (single isomer, unassigned) [Example 178, N-{1-[(4-Cyanopiperidin-1-yl)carbonyl]-5-[4-(trifluoromethyl)phenyl]piperidin-3-yl}cyclopentanecarboxamide] it is 63 nM.

The record behind these values is patent US8987248B2, “Substituted piperidines as Par-1 antagonists” (Bayer Intellectual Property GmbH, priority 2009, dated 2015).
